Assay results taken from patent publication US20250049770A1, “Phosphodiesterase 4 Inhibitor Decreases Thrombosis in Simulated ECMO Model” (Board of Regents, The University of Texas System, priority 2023, published 2025).

Assays:
[1] = system: neutrophils and monocytes; conditions: Totani et al (J. Thromb Haemost. 2016); cited from earlier work
[2] = system: human whole blood; assay: Circuit patency / clot formation in simulated neonatal roller pump ECMO circuit (Trial 1); conditions: for circuits with sustained patency after six hours: heparin 0.5 U/mL with or without roflumilast, 3/4 vs 2/7 circuits
Text: (§1) Whole blood was collected from healthy adults under an U.S. Army Institute of Surgical Research approved standard operating procedure. A simulated neonatal roller pump with a KIDS D100 oxygenator circulated human whole blood at a low or nominal flow rate ([…] and 0.5 L/min) for six hours or until clot formation caused device failure. Samples were collected hourly from the ECMO model that received heparin alone or heparin plus roflumilast (a PDE4 inhibitor). Expression of pro-thrombotic proteins on leukocytes and extracellular vesicles (EV) were measured with high-resolution flow cytometry. Coagulation factor activity, platelet counts, time to thrombin generation, peak thrombin, and endogenous thrombin potential were quantified.
(§2) Whole blood was collected from healthy adult humans into a blood transfer bag containing 0.5 U/mL of heparin with or without roflumilast at 0.01 microgram per mL, under an approved protocol by the U.S. Army Institute of Surgical Research. The blood was then circulated through a roller pump circuit for six hours or until clot formation occurred that prevented forward flow through the circuit. As a control, an aliquot of static blood was removed after priming the circuit and maintained in a similar test environment without circuitry.
(§3) Samples were collected hourly from the roller pump circuit, which circulated blood treated with either heparin only or heparin plus roflumilast, at nominal flow rates (0.5 L/min). The expression of pro-thrombotic phospholipids and proteins on platelets, leukocytes, and extracellular vesicles (EV) was measured using high-resolution flow cytometry. Additionally, thromboelastography (TEG) and coagulation indices were used to assess coagulopathy, and a calibrated automated thrombogram was employed to measure differences in whole blood TEG between the roflumilast-treated and heparin-only samples.

[3] = system: leukocytes; assay: Leukocyte activation measured by TNF-alpha in roller pump ECMO circuit (Trial 1); format: cell-based, human; conditions: nominal flow rate (0.5 L/min), six hours; heparin with Roflumilast
Text: as §1, with “quantified. Whole blood was collected from healthy adult humans into a blood transfer bag containing 0.5 U/mL of heparin with or without roflumilast at 0.01 microgram per mL, under an approved protocol by the U.S. Army Institute of Surgical Research. The blood was then circulated through a roller pump circuit for six hours or until clot formation occurred that prevented forward flow through the circuit. As a control, an aliquot of static blood was removed after priming the circuit and maintained in a similar test environment without circuitry.” for “quantified.”

[4] = system: platelets, leukocytes, and extracellular vesicles (EV); assay: High-resolution flow cytometry of pro-thrombotic proteins in roller pump ECMO circuit (Trial 1); format: cell-based, human
Text: Whole blood was collected from healthy adults under an U.S. Army Institute of Surgical Research approved standard operating procedure. A simulated neonatal roller pump with a KIDS D100 oxygenator circulated human whole blood at a low or nominal flow rate ([…] and 0.5 L/min) for six hours or until clot formation caused device failure. Samples were collected hourly from the ECMO model that received heparin alone or heparin plus roflumilast (a PDE4 inhibitor). Expression of pro-thrombotic proteins on leukocytes and extracellular vesicles (EV) were measured with high-resolution flow cytometry. Coagulation factor activity, platelet counts, time to thrombin generation, peak thrombin, and endogenous thrombin potential were quantified. Whole blood was collected from healthy adult humans into a blood transfer bag containing 0.5 U/mL of heparin with or without roflumilast at 0.01 microgram per mL, under an approved protocol by the U.S. Army Institute of Surgical Research. The blood was then circulated through a roller pump circuit for six hours or until clot formation occurred that prevented forward flow through the circuit. As a control, an aliquot of static blood was removed after priming the circuit and maintained in a similar test environment without circuitry. Samples were collected hourly from the roller pump circuit, which circulated blood treated with either heparin only or heparin plus roflumilast, at nominal flow rates (0.5 L/min). The expression of pro-thrombotic phospholipids and proteins on platelets, leukocytes, and extracellular vesicles (EV) was measured using high-resolution flow cytometry. Additionally, thromboelastography (TEG) and coagulation indices were used to assess coagulopathy, and a calibrated automated thrombogram was employed to measure differences in whole blood TEG between the roflumilast-treated and heparin-only samples.

[5] = system: human whole blood; assay: Thromboinflammation markers in simulated Cardiohelp HTS in vitro ECMO system (Trial 2); format: cell-based; conditions: roflumilast added to heparin vs heparin alone; preliminary results
Text: (§4) Whole blood was collected from healthy adults under an US Army Institution of Surgeryal Review Board approved protocol. A simulated Cardiohelp HTS in vitro ECMO system with a double-lumen veno-venous catheter circulated human whole blood at a low flow rate (1 L/min) for six hours or until clot formation caused device failure. Samples were collected hourly from the ECMO model that received heparin alone or heparin plus roflumilast (a PDE4 inhibitor). Expression of pro-thrombotic proteins on leukocytes and extracellular vesicles (EV) were measured with high-resolution flow cytometry. Coagulation factor activity, platelet counts, time to thrombin generation, peak thrombin, and endogenous thrombin potential were quantified.

[6] = system: human whole blood; assay: Clot formation (d-dimer) and plasminogen activating inhibitor in simulated Cardiohelp HTS in vitro ECMO system (Trial 2); conditions: after five hours of circulation, low flow rate (1 L/min); for clot formation as measured by d-dimer: heparin with or without roflumilast, p<0.04
Text: as §4

[7] = system: thrombin generation; assay: Thrombin generation (calibrated automated thrombogram) in roller pump ECMO circuit (Trial 1); parameters: species or system human; conditions: for time to thrombin generation: at the 3-hour time point, p<0.04; for time to thrombin generation / peak thrombin generation: heparin with or without roflumilast; for peak thrombin generation: p<0.02
Text: as §1, §2, §3

[8] = system: monocyte; conditions: cell culture experiments; cited from earlier work
[9] = in vitro ECMO experiments with roflumilast

Molecule	pro-thrombotic functions of neutrophils and monocytes [1]	circuits with sustained patency after six hours [2]	clot formation (in vitro ECMO experiments, summary) [2, 9]	leukocyte activation as measured by TNF-alpha [3]	Monocytes expression of tissue factor ([4]; low flow (0.3 L/min) vs low flow with Roflumilast, p<0.05)	P-selection expression ([4]; low flow (0.3 L/min) with Roflumilast vs nominal and low flow, over six hours, p<0.05)	extracellular leukocytes expressing tissue factor ([4]; roller pump circuit, heparin plus roflumilast)	monocyte activation (thromboinflammation) [5]	myeloperoxidase (thromboinflammation) [5]	p-selectin (thromboinflammation) [5]	clot formation as measured by d-dimer [6]	increase in plasminogen activating inhibitor levels, more than heparin alone ([6]; roflumilast added to heparin, p<0.03)	time to thrombin generation [7]	peak thrombin generation [7]	thrombin generation (in vitro ECMO experiments, summary) [7, 9]	Peak thrombin (comparison in words) ([7]; nominal flow rate (0.5 L/min), six hours, heparin only vs leukodepleted or roflumilast and heparin, p<0.05)	lag time (thrombin generation) ([7]; over six hours of circulation, heparin vs heparin with Roflumilast)	monocyte activation of tissue factor [8]
O=C(Nc1c(Cl)cncc1Cl)c1ccc(OC(F)F)c(OCC2CC2)c1 [roflumilast]	prevents	75%	decreased	inhibited leukocyte activation	increased more at low flow than circuits treated with	significantly inhibited	decreased	less	less	less	0.30 ± 0.06 µg/mL	1.6 fold	13.9 min	69 nm	decreased	increased significantly more in heparin only	decreased lag time over six hours of circulation less than roflumilast treated circuits	decreases
heparin	–	28%	–	–	–	–	–	–	–	–	0.49 ± 0.08 µg/mL	–	6.8 min	207 nm	–	–	–	–
